Laboratory results taken from ChEMBL document CHEMBL1201862, “PubChem BioAssay data set” (2004).
Activity calls are given as the source filed them.

Columns and labels:
[1] = target: T1, Heat shock factor protein 1 (Mus musculus, UniProt P38532); assay: inhibition of MG132-induced HSE-luciferase signal, confirmation, cell-based, NIH3T3, luminescence, dose retest (AID 2382); assay type: functional;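 also: NIH3T3 fibroblasts with HSF1-driven luciferase reporter stressed by proteasome inhibitor MG132; luminescence from HSF1-driven luciferase expression after 8 hours of MG132 stress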
T1 sequence (P38532 whole entry): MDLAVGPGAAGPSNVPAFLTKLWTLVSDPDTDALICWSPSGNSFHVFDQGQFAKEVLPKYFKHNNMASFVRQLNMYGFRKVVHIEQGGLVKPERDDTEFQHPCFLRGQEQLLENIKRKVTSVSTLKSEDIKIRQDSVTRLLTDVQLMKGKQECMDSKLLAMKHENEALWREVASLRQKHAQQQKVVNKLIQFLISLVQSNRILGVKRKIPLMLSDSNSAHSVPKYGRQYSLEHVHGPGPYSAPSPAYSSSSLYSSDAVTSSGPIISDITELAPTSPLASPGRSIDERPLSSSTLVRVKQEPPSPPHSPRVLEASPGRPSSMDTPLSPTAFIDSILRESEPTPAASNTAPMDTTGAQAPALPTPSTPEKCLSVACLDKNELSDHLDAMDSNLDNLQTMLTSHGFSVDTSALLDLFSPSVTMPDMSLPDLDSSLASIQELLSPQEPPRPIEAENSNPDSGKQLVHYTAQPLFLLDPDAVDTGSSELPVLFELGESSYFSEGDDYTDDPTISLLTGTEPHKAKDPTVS

[2] = HEp-2 cell cytotoxicity, dose response, cytotoxicity control for RSV inhibitor project, HTS (AID 2410); assay type: functional; conditions: human respiratory syncytial virus
[3] = target: T2, Dual specificity protein phosphatase 6 (Rattus norvegicus, UniProt Q64346); assay: MKP-3 phosphatase inhibitors, primary screen, biochemical, rat enzyme, in vitro (AID 425)
T2 sequence (Q64346 whole entry): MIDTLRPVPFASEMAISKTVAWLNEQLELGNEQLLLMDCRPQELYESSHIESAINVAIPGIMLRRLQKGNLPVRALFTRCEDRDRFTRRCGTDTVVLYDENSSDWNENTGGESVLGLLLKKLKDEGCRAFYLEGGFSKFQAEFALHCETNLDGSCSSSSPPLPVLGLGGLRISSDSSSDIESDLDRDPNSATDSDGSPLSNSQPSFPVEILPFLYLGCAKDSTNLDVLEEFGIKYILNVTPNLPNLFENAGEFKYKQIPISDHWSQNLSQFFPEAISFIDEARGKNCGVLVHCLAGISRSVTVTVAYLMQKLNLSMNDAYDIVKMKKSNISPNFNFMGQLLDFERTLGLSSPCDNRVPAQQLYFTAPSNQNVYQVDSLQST

Large T antigen = Large T antigen (Simian virus 40, UniProt P03070); assay type: functional, Betapolyomavirus macacae;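 also: Confirmatory-stage PubChem screen for compounds that inhibit SV40 T antigen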
[4] = target: Heat shock cognate 71 kDa protein (Homo sapiens, UniProt P11142); assay: In Vitro Hsc70 Dose Response Fluorescence Polarization Assay. [Related pubchem assays: 1072 ]
NS3 = NS3 (Hepatitis C virus, UniProt A3EZJ3); assay: HCV NS3 helicase inhibitor potency, dose response, biochemical, fluorescence polarization, ChemBridge library (AID 743264)
[5] = target: T2, Dual specificity protein phosphatase 6
[6] = target: Heat shock 70 kDa protein 1A (Homo sapiens, UniProt P0DMV8); assay: Hsp70 inhibitors, SAR follow-up, biochemical, fluorescence polarization (AID 1072)
[7] = target: Induced myeloid leukemia cell differentiation protein Mcl-1 (Homo sapiens, UniProt Q07820); assay type: functional
[8] = target: Glyceraldehyde-3-phosphate dehydrogenase (Homo sapiens, UniProt P04406)
[9] = target: Eukaryotic translation initiation factor 4E (Mus musculus, UniProt P63073); assay: eIF4E–eIF4G protein interaction inhibitors, dose response, biochemical, TR-FRET (AID 855); assay type: functional;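 also: potency for disrupting eIF4E binding to eIF4GI seen as loss of FRET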
[10] = target: T3, Tyrosine-protein phosphatase non-receptor type 7 (Homo sapiens, UniProt P35236); assay type: functional
T3 sequence (P35236 whole entry): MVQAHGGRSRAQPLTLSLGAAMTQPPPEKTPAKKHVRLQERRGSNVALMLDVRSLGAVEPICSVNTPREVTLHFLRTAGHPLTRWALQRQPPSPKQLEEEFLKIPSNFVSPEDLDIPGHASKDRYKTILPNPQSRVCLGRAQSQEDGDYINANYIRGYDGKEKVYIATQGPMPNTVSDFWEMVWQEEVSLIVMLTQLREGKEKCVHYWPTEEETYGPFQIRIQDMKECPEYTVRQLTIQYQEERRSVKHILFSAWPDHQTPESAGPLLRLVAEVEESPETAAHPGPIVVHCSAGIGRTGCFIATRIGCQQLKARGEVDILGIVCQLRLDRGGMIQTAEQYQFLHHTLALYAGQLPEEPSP

[11] = target: Acyl-homoserine lactone acylase PvdQ (Pseudomonas aeruginosa (strain LESB58), UniProt Q9I194); assay: P. aeruginosa PvdQ acylase inhibitors, dose response, biochemical, fluorescence, plate reader and imaging, cherry-picks (AID 493231)
Cytochrome P450 2D6 = Cytochrome P450 2D6 (Homo sapiens, UniProt P10635); assay: qHTS Assay for Inhibitors and Substrates of Cytochrome P450 2D6. [Related pubchem assays: 410 ]; assay type: ADME; conditions: read-out: Potency
Cytochrome P450 2C9 = Cytochrome P450 2C9 (Homo sapiens, UniProt P11712); conditions: Potency
Cytochrome P450 3A4 = Cytochrome P450 3A4 (Homo sapiens, UniProt P08684); conditions: Potency;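 also: confirmatory qHTS run detecting inhibitors and substrates of CYP3A4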
[12] = target: Lysosomal acid glucosylceramidase (Homo sapiens, UniProt P04062); assay: Dose response cell-based high throughput screening assay to identify enhancers of beta-glucosidase activity. [Related pubchem assays: 784 ]; assay type: functional
Vasopressin V1a receptor = Vasopressin V1a receptor (Homo sapiens, UniProt P37288); assay: Counterscreen for Oxytocin Receptor (OXTR) agonists: Fluorescence-based cell-based high throughput dose response assay to identify agonists of the vasopressin 1 receptor (V1R). [Related pubchem assays: 2435 (Primary screen (OXTR agonists in singlicate)), 434991 (Counterscreen (V1R agonists in triplicate)), 2482 (Summary (OXTR agonists)) …; assay type: functional
[13] = target: T4, Corticotropin-releasing factor receptor 2/Corticotropin-releasing factor-binding protein (Homo sapiens, UniProt P24387+Q13324); assay: activators of CRF receptor 2 with binding protein – uHTS hits, confirmation (AID 602473); assay type: functional; conditions: read-out: EC50_Mean
T4 sequence (Q13324 whole entry): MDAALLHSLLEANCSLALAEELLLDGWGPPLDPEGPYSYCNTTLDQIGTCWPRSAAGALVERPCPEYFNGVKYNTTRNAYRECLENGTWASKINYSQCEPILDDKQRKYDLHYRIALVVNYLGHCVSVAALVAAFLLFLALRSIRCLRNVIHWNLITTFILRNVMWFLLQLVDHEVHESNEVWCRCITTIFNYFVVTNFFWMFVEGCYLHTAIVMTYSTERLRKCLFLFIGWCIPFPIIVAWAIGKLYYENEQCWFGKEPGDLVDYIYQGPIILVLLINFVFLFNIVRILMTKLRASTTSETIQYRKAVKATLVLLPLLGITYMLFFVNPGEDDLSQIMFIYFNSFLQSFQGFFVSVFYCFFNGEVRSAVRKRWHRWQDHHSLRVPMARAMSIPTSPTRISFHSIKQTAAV
T4 sequence (P24387 whole entry): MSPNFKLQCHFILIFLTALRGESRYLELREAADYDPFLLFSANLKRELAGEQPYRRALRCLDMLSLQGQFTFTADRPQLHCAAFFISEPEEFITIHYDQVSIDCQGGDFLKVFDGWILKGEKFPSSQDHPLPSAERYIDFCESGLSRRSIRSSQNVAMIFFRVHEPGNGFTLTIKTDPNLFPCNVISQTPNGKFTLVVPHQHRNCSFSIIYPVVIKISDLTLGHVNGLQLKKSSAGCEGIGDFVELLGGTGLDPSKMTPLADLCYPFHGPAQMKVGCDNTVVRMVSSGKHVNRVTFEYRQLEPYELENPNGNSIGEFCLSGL

Oxytocin receptor = Oxytocin receptor (Homo sapiens, UniProt P30559); assay: Fluorescence-based cell-based high throughput dose response assay for agonists of the Oxytocin Receptor (OXTR). [Related pubchem assays: 2435 (Primary screen (OXTR agonists in singlicate)), 434991 (Counterscreen (V1R agonists in triplicate)), 2482 (Summary (OXTR agonists)), 434963 (Confirmation screen (OXTR agonists in triplicate))]; assay type: functional
Vibrio harveyi = assay: Quorum Sensing, LuxS, LuxPQ Measured in Microorganism System Using Plate Reader - 2035-01_Inhibitor_DoseNoFile_DryPowder_Activity. [Related pubchem assays (depositor defined):AID2106]; assay type: functional, organism-based
[14] = target: Melanin-concentrating hormone receptor 1 (Homo sapiens, UniProt Q99705); assay: Late-stage fluorescence-based counterscreen for antagonists of the G-protein coupled receptor 7 (GPR7): cell-based dose response assay to identify antagonists of the melanin-concentrating hormone receptor 1 (MCHR1). [Related pubchem assays (depositor defined):AID1861, AID1880, AID1952, AID2148, AID2251, AID2257, AID485339]; assay type: functional;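 also: stimulated with 30 nM MCH peptide agonist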
Insulin-degrading enzyme = target: T5, Insulin-degrading enzyme (Homo sapiens, UniProt P14735); assay: Dose Response: Fluorescence polarization-based cell-based high throughput dose response assay for inhibitors of insulin-degrading enzyme (IDE). [Related pubchem assays: 434962 (Primary screen (IDE inhibitors in singlicate)), 449730 (Counterscreen (Cytotoxicity in triplicate)), 435028 (Confirmation (IDE inhibitors in triplicate)), 434984 (Summary …; assay type: functional
T5 sequence (P14735 whole entry): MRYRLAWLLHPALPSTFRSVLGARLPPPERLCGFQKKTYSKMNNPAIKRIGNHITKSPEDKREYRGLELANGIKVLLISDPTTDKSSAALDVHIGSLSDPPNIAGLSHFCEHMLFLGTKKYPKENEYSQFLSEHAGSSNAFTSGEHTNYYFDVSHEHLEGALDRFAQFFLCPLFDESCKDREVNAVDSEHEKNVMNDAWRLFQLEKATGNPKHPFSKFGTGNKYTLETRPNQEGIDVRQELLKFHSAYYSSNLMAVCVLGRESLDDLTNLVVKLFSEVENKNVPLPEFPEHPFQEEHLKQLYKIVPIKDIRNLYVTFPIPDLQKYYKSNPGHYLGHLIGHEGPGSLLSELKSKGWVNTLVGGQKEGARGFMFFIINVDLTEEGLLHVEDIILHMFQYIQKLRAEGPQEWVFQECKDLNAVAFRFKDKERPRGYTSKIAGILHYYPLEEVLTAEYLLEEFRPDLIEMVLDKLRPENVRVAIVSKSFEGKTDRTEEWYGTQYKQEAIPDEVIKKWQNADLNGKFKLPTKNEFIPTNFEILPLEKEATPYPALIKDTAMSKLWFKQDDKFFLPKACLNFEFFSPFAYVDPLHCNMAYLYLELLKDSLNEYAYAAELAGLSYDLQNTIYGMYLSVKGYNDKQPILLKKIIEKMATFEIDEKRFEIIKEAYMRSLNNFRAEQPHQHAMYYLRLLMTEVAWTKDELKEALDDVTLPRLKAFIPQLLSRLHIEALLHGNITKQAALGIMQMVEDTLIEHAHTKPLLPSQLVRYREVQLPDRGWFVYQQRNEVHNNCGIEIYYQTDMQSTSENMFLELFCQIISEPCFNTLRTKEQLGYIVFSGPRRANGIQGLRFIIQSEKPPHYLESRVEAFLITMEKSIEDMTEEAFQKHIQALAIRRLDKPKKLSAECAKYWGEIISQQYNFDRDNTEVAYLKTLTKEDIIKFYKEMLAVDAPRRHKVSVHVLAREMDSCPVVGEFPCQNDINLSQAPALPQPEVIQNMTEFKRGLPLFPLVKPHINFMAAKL

[15] = Counterscreen for IDE inhibitors: Luminescence-based cell-based high throughput dose response assay to identify compounds that are cytotoxic to HEK cells. [Related pubchem assays: 434962 (Primary screen (IDE inhibitors in singlicate)), 449730 (Counterscreen (Cytotoxicity in triplicate)), 435028 (Confirmation (IDE inhibitors in triplicate)) …; assay type: functional; conditions: HEK293
[16] = A Cell Based Assay for the Identification of Probe candidate Compounds with Anti- Venezuelan Equine Encephalitis virus. [Related pubchem assays: 2409, 2419, 1621, 2238, 2405, 2024, 2065, 2402, 2414, 1635, 1650, 2244 ]; assay type: functional
Vero = assay: cytotoxicity of synthesized analogs in Vero cells, SAR follow-up, cytotoxicity control for West Nile virus antiviral project, cell-based, set II (AID 2402); assay type: functional; conditions: Chlorocebus sabaeus

Sequence of Large T antigen (P03070 whole entry): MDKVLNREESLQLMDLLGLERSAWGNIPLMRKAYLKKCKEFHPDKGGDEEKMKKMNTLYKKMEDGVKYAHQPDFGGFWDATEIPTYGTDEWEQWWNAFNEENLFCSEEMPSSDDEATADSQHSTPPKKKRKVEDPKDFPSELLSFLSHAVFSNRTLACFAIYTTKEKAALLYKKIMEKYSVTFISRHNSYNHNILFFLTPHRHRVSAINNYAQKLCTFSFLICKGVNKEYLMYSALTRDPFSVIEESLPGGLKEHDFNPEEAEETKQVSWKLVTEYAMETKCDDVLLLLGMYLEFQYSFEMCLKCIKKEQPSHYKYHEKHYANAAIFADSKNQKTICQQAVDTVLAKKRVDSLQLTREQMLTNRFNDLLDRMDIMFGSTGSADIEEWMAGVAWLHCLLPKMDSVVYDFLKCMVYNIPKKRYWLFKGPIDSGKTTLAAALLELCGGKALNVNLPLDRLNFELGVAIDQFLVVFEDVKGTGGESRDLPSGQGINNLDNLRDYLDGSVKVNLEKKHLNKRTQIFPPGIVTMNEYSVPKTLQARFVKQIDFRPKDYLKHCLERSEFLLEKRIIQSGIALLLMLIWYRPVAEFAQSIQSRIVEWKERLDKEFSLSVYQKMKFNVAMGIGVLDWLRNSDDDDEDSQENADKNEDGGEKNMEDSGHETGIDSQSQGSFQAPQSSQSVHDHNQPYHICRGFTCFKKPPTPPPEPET
Sequence of Lysosomal acid glucosylceramidase (P04062 whole entry): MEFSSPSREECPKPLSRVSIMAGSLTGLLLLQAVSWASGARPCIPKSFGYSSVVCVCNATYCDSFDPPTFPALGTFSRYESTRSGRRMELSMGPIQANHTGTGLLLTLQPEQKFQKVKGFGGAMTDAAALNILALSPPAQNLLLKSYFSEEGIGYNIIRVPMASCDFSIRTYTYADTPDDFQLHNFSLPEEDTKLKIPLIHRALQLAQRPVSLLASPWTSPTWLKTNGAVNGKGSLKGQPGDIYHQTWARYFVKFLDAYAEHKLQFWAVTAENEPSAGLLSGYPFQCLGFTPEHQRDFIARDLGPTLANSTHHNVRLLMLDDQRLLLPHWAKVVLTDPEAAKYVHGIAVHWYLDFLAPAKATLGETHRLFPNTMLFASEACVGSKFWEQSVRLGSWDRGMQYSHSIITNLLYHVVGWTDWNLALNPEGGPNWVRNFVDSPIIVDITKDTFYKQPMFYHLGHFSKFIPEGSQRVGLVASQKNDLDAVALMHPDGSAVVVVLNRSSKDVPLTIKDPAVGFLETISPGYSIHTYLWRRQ
Sequence of Cytochrome P450 2D6 (P10635 whole entry): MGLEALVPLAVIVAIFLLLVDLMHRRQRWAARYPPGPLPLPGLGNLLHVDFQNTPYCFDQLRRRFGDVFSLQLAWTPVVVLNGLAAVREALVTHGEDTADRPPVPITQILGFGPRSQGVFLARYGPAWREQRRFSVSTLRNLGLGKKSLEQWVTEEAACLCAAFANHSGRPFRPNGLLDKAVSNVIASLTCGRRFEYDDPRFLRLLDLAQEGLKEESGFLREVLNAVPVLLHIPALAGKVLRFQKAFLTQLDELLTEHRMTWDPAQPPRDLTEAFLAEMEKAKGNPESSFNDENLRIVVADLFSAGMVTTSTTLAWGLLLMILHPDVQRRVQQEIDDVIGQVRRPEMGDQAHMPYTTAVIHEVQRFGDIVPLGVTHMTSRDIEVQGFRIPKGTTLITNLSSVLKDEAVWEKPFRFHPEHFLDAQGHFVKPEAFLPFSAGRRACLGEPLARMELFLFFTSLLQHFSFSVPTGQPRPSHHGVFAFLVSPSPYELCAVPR
Sequence of Cytochrome P450 3A4 (P08684 whole entry): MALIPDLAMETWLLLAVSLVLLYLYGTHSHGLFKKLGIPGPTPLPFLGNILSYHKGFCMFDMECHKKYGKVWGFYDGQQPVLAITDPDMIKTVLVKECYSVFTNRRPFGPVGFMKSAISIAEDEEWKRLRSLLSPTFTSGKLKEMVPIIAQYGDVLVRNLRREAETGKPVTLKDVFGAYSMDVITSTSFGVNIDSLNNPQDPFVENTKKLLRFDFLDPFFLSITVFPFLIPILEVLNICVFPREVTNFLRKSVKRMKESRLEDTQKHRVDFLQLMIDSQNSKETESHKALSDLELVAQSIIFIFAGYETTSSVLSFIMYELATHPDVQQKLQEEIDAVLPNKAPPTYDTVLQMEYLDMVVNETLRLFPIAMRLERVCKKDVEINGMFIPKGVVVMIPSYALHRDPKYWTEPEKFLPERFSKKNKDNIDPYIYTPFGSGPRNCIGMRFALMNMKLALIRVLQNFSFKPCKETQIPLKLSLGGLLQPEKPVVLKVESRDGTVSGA
Sequence of Heat shock 70 kDa protein 1A (P0DMV8 whole entry): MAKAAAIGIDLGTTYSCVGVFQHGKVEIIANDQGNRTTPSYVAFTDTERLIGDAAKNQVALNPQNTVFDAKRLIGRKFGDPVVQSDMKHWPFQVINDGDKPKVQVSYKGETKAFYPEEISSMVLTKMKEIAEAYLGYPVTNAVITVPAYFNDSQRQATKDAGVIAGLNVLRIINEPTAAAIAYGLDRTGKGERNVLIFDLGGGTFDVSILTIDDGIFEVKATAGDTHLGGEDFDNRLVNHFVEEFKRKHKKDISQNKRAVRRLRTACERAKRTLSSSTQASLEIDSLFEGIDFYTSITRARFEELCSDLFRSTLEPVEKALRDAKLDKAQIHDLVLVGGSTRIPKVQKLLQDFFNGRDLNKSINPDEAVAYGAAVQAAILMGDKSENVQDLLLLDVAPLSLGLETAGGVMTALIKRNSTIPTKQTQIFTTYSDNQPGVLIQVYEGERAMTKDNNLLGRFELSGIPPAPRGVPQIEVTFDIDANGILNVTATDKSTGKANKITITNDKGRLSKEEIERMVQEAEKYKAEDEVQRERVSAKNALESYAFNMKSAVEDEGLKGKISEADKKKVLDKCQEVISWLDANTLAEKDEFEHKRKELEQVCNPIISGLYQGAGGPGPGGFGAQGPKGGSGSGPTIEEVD
Sequence of Oxytocin receptor (P30559 whole entry): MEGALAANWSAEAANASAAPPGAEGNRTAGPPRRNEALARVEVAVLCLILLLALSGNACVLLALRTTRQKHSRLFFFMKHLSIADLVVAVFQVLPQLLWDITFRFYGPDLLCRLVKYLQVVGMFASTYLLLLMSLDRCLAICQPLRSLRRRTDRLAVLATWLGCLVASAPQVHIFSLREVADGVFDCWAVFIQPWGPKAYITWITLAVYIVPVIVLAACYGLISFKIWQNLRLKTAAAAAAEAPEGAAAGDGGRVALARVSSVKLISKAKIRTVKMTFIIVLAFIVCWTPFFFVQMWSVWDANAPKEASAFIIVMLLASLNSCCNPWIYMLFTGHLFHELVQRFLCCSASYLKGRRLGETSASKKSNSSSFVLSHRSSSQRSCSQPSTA
Sequence of Melanin-concentrating hormone receptor 1 (Q99705 whole entry): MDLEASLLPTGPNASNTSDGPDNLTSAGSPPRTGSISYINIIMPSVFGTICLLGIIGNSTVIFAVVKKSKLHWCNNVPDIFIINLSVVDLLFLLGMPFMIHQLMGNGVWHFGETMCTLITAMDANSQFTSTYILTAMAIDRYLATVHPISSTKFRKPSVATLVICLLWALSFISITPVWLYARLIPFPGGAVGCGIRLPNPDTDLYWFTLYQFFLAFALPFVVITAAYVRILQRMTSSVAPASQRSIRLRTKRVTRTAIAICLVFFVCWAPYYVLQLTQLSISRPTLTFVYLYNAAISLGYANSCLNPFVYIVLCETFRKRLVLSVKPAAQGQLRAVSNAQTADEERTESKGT
Sequence of Vasopressin V1a receptor (P37288 whole entry): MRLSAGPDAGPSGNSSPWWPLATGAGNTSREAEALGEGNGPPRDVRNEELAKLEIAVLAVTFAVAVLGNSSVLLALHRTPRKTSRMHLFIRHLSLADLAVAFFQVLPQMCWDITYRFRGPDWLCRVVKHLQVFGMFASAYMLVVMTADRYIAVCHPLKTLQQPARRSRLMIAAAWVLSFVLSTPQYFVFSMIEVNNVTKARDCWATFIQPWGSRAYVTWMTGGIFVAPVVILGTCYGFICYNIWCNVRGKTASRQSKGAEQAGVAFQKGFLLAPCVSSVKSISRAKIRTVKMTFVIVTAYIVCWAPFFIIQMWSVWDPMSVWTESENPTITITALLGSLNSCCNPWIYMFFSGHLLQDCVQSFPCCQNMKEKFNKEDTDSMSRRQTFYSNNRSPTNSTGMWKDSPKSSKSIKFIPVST
Sequence of NS3 (A3EZJ3 whole entry): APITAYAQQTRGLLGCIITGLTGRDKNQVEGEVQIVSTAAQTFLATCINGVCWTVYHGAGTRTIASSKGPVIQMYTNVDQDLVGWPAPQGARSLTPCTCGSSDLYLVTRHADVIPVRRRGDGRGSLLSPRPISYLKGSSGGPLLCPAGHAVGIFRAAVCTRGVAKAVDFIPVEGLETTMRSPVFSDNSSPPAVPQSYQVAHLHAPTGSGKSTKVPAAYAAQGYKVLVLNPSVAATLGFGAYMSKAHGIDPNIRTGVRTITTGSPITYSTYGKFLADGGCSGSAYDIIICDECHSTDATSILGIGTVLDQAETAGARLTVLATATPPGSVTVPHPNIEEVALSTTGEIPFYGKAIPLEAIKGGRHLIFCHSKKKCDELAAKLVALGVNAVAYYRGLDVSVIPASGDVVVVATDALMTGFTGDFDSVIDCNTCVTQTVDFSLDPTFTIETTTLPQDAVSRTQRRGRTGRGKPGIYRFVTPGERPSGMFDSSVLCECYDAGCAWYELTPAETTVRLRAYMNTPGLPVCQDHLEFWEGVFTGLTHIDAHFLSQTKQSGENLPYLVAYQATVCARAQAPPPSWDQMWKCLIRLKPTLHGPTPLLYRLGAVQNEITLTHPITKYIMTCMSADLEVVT
Sequence of Eukaryotic translation initiation factor 4E (P63073 whole entry): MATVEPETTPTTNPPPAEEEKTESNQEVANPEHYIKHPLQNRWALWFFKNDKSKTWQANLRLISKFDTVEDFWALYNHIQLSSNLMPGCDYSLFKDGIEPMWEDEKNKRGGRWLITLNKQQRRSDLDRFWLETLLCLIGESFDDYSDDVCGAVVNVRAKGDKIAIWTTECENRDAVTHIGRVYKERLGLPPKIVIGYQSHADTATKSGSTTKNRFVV

COc1ccc(C(=O)N/C(=C\c2cccs2)c2nc3ccccc3[nH]2)cc1OC
EC50 [1]: > 195 µM (not active) | IC50 (cells): 25.6 µM (active) | CC50 [2]: > 50 µM (active)

Cc1ccc2c(c1)C1C=CCC1C(C(=O)O)N2 (stereo not drawn)
IC50 [3]: > 10 µM (not active) | IC50 (Large T antigen): 9.1 µM (active) | IC50 [4]: > 100 µM (not active) | IC50 (NS3): 37.5 µM (inactive) | IC50 [5]: 8 µM (active) | IC50 [6]: 4.77 µM (active) | IC50 [7]: > 54 µM (active) | IC50 [8]: 70.7 µM (active) | IC50 [9]: 5.44 µM (active) | IC50 [10]: 15.6 µM (active)

CCOC(=O)CC(C#N)c1cn(C)c2ccccc12 (stereo not drawn)
AC50 [11]: 7.18 µM (active)

CCCCCCCC1=Cc2ccccc2C(CC(C)=O)N1C(=O)OC (stereo not drawn)
AC50 (Cytochrome P450 2D6): 3.98 µM (inconclusive) | AC50 (Cytochrome P450 2C9): 6.31 µM (inconclusive) | AC50 (Cytochrome P450 3A4): 3.16 µM (inconclusive)

Cc1cc(-c2nnc(SCc3cccnc3)o2)no1
EC50 [12]: > 50 µM (not active)

CC(=O)c1c(C)[nH]c(C(=O)CN2C(=O)NC(C)(c3ccc(C)cc3)C2=O)c1C (stereo not drawn)
EC50 (Vasopressin V1a receptor): > 29.9 µM (not active) | EC50 [13]: 11.6 µM (active) | EC50 (Oxytocin receptor): > 29.9 µM (not active)

CN(C)S(=O)(=O)c1ccc(NC(=S)NC(=O)Cc2ccccc2)cc1
AC50 (Vibrio harveyi): 66.4 µM (active)

CCc1ccc(-n2ncc(Cl)c(Oc3ccc(OC)cc3)c2=O)cc1
IC50 [14]: 3.9 µM (active)

COc1cc(-c2cc(=O)c3ccccc3o2)ccc1O
IC50 (Large T antigen): 9.46 µM (active) | IC50 (Insulin-degrading enzyme): > 6.21 µM (active) | IC50 [15]: > 55.6 µM (not active)

COc1ccc(Cn2nc(C)cc2OC(=O)c2c(F)ccc(C)c2F)cc1
IC50 [16]: 131 µM (active) | CC50 (Vero): > 200 µM (active)
